One data set has as its target FGFR4 kinase (Homo sapiens (Human), UniProt P22455). Put plainly: Enzymologic experiment of FGFR4 (TR-FRET). Conditions: FGFR4 kinase activity. The class given is biochemical. (In general: Time-resolved FRET reads energy transfer from a long-lived donor to a nearby acceptor.)
The target in the next data set is FGFR1 kinase (Homo sapiens (Human), UniProt P11362). Put plainly: Enzymologic experiment of FGFR1 (TR-FRET). The class given is biochemical. The settings on record: FGFR1 kinase activity. In outline: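 FGFR1 at 0.1˜5 nM final with substrate peptide 5˜50 nM and ATP 10˜200 μM final, 0.5˜3 h at room temperature. Stopped with EDTA plus labeled antibody for 1 h; TR-FRET signal read at 665 nm, IC50 fitted from inhibition rates.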

In a further data set the test system is Hep 3B cells. Nature of the data set: Inhibition of Hep 3B cell proliferation (CellTiter-Glo). The class given is cell-based. Conditions: Homo sapiens, Hep3B. A general note: Cellular ATP, detected with luciferase, serves as a proxy for viable cell number.
Another data set has as its system HuH-7 cells. Nature of the data set: Inhibition of HuH-7 cell proliferation (CellTiter-Glo). The class given is cell-based. The settings on record: Homo sapiens, read-out: HuH-7 IC50. In outline:
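HuH-7 cells plated and left 16–24 h, then exposed to serially diluted compound for 72 h at 37 °C, 5% CO2. Viability read by CellTiter-Glo luminescence. IC50 obtained by curve fitting of inhibition rates.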

In the next data set the test system is SK-HEP-1 cells. Nature of the data set: Inhibition of SK-HEP-1 cell proliferation (CellTiter-Glo). The class given is cell-based. Conditions: Homo sapiens, read-out: SK-HEP-1 IC50. Summed up: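 Cells seeded and allowed to attach 16–24 h, then exposed to serially diluted compound for 72 h at 37 °C, 5% CO2. Viability read by CellTiter-Glo luminescence; IC50 fitted from inhibition rates across concentrations.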

Data set [1] is described as follows: Pharmacokinetic (PK) analysis in rats. The class given is in vivo, Sprague Dawley (SD) rats. The settings on record: SD rats, single intragastric administration, 5 mg/kg; for Peak Time tmax: (sampling in hours); for AUC(0-t) / AUC(0-inf) / half-life / MRT / Cmax: Sprague-Dawley, rat, plasma, po; for AUC(0-t): read-out: Area Under Curve AUC0-t; for AUC(0-inf): read-out: Area Under Curve AUC0-∞; for half-life: read-out: Half-Time t1/2 (converted); for MRT: read-out: Mean Residence Time MRT; for Cmax: read-out: Plasma Concentration Cmax. Summed up: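 Intravenous blood (0.2 ml) was collected into K2EDTA and centrifuged to obtain plasma. Plasma (40 μL) was protein-precipitated with 160 μL acetonitrile. Compound levels were measured by LC/MS/MS on a C18 column using 0.1% formic acid in water and acetonitrile at 0.8 mL/min.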

In a further data set the test system is Hep 3B cell line tumor. Put plainly: Pharmacodynamics test in vivo, Hep 3B tumor-bearing nude mice. Conditions: Mus musculus, Hep3B, oral 30 mg/kg, 2 times/day, read-out: Tumor inhibition rate. How it is done: a, A Hep 3B cell line was taken from the cell bank, and the cells were resuscitated with the MEM culture medium (MEM+10% FBS+1% Glu+1% SP). The cells were placed in the cell culture bottle after resuscitation (cell type, date, and the name of the culturing person were marked on the bottle wall) and were incubated in a CO2 Incubator (the incubator temperature was 37° C., and the CO2 concentration was 5%).
b, The cells were passaged after 80-90% of the bottom of the culture bottle was covered by the cells. After passage, the cells were further incubated in the CO2 incubator. The process was repeated until the number of cells met the pharmacodynamic requirements in vivo.
c, The cultured cells were collected and counted by automatic cell counter. According to the counting results, the cells were resuspended with PBS to prepare a cell suspension (density: 7×10^7/mL), which was placed in the ice box for use.
a, Nude mouse was marked with a disposable universal ear tag for mouse and rat before inoculation, and the skin of the inoculated site was disinfected with 75% medical alcohol.
b, At the time of inoculation, the cell suspension was mixed well, 0.1˜1 mL of cell suspension was taken with a 1 mL syringe, after removing air bubbles, and the syringe was placed on an ice bag for use.
c, The nude mice were inoculated successively (the inoculated site was located on the right shoulder of the right back of the nude mice, and inoculated subcutaneously with 0.1 mL of cell suspension).
a, Tumor was measured on Day 14 to Day 16 after inoculation depending on the tumor growth, and tumor size was calculated.
Tumor volume calculation: tumor volume (mm^3)=length (mm)×width (mm)×width (mm)/2
b, According to the size of the tumor, the mice were grouped by random grouping.
c, According to the results of the grouping, the test drug was administered (administration method: oral administration, administration dose: 30 mg/kg, administration volume: 10 mL/kg, administration frequency: 2 times/day, […], vehicle: 0.5% CMC/1% Tween 80).
d, The tumor was measured and weighed twice a week after the test drug was administrated.
e, Animals were euthanized at the end of the test.

The mark [2] stands for this setting: Hep 3B cell proliferation, 72 hours, CellTiter-Glo, read-out: Hep 3B IC50.
Where [3] appears, read: HuH-7 cell proliferation, 72 hours, CellTiter-Glo.
The mark [4] stands for this setting: SK-HEP1, SK-HEP-1 cell proliferation, 72 hours, CellTiter-Glo.
[5] abbreviates: 336 h, 14 days of administration.
[6] abbreviates: 72 h, read-out: Hep 3B IC50, Hep 3B cell proliferation, 72 hours, CellTiter-Glo.
Setting [7] is: 216 h, 9 days of administration.

Read-outs that look alike come from different tables or passages of the source.

Sequence of FGFR1 kinase (P11362 22-822): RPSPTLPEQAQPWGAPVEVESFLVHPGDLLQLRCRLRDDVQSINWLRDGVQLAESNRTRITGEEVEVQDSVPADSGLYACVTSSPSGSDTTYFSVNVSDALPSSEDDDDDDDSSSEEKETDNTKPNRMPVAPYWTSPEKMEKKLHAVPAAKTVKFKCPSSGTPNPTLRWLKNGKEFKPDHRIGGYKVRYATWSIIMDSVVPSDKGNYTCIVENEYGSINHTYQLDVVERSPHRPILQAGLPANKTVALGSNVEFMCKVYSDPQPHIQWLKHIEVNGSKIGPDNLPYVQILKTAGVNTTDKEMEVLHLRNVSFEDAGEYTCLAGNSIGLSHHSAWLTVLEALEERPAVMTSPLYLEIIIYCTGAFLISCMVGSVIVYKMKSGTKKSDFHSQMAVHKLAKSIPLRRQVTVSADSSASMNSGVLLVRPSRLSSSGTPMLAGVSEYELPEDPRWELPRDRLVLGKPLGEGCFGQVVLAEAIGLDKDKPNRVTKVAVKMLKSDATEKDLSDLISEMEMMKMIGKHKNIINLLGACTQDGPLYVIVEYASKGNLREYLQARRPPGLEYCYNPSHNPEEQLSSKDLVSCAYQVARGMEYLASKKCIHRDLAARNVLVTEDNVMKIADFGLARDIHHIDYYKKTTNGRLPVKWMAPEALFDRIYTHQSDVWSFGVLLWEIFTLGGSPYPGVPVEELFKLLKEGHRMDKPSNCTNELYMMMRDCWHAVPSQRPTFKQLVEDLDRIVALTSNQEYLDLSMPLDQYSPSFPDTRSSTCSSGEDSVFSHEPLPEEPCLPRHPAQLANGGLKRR
Sequence of FGFR4 kinase (P22455 22-802): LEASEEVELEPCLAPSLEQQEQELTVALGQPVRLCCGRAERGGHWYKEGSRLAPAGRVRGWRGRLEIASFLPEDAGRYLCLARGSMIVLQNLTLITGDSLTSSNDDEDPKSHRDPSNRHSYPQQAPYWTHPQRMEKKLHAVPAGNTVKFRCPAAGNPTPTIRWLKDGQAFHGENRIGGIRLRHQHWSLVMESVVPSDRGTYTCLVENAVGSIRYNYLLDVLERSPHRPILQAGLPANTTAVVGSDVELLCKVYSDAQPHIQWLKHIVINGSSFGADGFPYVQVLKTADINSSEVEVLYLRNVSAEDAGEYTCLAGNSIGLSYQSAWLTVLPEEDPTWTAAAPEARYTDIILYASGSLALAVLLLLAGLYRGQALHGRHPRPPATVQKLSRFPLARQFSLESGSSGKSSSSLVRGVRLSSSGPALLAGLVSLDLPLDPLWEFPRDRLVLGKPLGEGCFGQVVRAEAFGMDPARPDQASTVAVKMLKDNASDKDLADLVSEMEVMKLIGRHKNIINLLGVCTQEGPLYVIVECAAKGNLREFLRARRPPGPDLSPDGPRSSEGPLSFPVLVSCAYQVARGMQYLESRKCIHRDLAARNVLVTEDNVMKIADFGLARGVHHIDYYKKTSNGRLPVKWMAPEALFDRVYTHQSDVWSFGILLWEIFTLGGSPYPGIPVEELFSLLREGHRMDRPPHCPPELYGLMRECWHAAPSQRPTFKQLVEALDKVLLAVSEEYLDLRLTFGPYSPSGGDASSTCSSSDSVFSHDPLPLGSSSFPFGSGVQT

Compound `COC[C@@H](C)Oc1cc(NC(=O)N2CCCc3cc(CN4C(=O)OCC45CC5)c(C=O)nc32)ncc1C#N` [Example 42, (R)-N-(5-Cyano-4-((1-methoxypropan-2-yl)oxy)pyridin-2-yl)-7-formyl-6-((5-carbonyl-6-oxa-4-azaspiro[2.4]heptan-4-yl)methyl)-3,4-dihydro-1,8-naphthyridin-1(2H) -carboxamide] came in with an IC50 against FGFR4 kinase of 0.0023 µM. Besides, the IC50 on FGFR1 kinase was greater than 10 µM. Moreover, the IC50 with Hep 3B cells (setting [2]) came out at 0.0067 µM. Also, the IC50 in the data set on HuH-7 cells (setting [3]) was 0.0084 µM. Also, the IC50 with SK-HEP-1 cells (setting [4]) was greater than 10 µM. In data set [1], the Peak Time tmax stood at 2 h, the AUC(0-t) was 6.67 µg·h/mL, the AUC(0-inf) amounted to 6.79 µg·h/mL and the half-life is 1.06 h. For the same compound, in data set [1], the MRT was found to be 2.21 h and the Cmax is 2.14 µg/mL. For the same compound, the inhibition in vivo at 30 mg/kg in the data set with Hep 3B cell line tumor (setting [5]) was 103%.

On to `COCCNc1cc(NC(=O)N2CCCc3cc(CN4CCN(C5CC5)CC4=O)c(C=O)nc32)ncc1C#N` [Example 65], for which the IC50 against FGFR4 kinase is 0.00162 µM. This compound also registered an IC50 at FGFR1 kinase greater than 10 µM. The IC50 in the data set with Hep 3B cells (setting [2]) was found to be 0.0043 µM. The IC50 in the data set on HuH-7 cells (setting [3]) is 0.0152 µM. Moreover, in the data set on SK-HEP-1 cells (setting [4]), the IC50 is greater than 10 µM. In data set [1], the Peak Time tmax is 2 h, the AUC(0-t) was determined as 2.91 µg·h/mL, the AUC(0-inf) was determined as 3.39 µg·h/mL and the half-life was 1.02 h. Besides, in data set [1], the MRT turned out to be 3.72 h and the Cmax was found to be 3.18 µg/mL. The inhibition in vivo at 30 mg/kg in the data set on Hep 3B cell line tumor (setting [5]) worked out at 130%.

In the case of `N#Cc1cnc(NC(=O)N2CCCc3cc(CN4CCOCC4=O)c(C=O)nc32)cc1S[C@H]1CCOC1` [Example 55, (S)-N-(5-Cyano-4-((tetrahydrofuran-3-yl)thio)pyridin-2-yl)-7-formyl-6-((3-carbonylmorpholino)methyl)-3,4-dihydro-1,8-naphthyridin-1(2H)-carboxamide], on FGFR1 kinase, the IC50 is greater than 10 µM. In addition, in the data set with Hep 3B cells (setting [6]), the IC50 was found to be 0.0145 µM. In the data set on HuH-7 cells (Huh-7, 72 h), the IC50 turned out to be 0.0361 µM. In addition, in the data set on SK-HEP-1 cells (SK-HEP1, 72 h), the IC50 is greater than 10 µM. Also, in data set [1], the Peak Time tmax is 4 h, the AUC(0-t) is 1.94 µg·h/mL, the AUC(0-inf) was 1.95 µg·h/mL and the half-life is 0.79 h. The Cmax in data set [1] was 2.33 µg/mL. In the data set on Hep 3B cell line tumor (setting [7]), the inhibition in vivo at 30 mg/kg amounted to 33%.

As to `COCCNc1cc(NC(=O)N2CCCc3cc(CN4CCCOCC4=O)c(C=O)nc32)ncc1C#N` [Example 6], the IC50 on FGFR1 kinase is greater than 10 µM. In addition, the IC50 in the data set with Hep 3B cells (setting [6]) worked out at 0.0011 µM. For the same compound, the IC50 in the data set with HuH-7 cells (Huh-7, 72 h) worked out at 0.0074 µM. The IC50 in the data set with SK-HEP-1 cells (SK-HEP1, 72 h) was greater than 10 µM. Moreover, in data set [1], the Peak Time tmax is 2 h, the AUC(0-t) was 9.12 µg·h/mL, the AUC(0-inf) was 9.13 µg·h/mL and the half-life is 0.9 h. In data set [1], the MRT came out at 1 h and the Cmax turned out to be 3.5 µg/mL. Besides, the inhibition in vivo at 30 mg/kg with Hep 3B cell line tumor (setting [7]) was 78.2%.

By MRT is commonly meant a mean duration of stay, worked out from the concentration-time curve.

The values are drawn from patent publication US11667631B2, “FGFR4 inhibitor, preparation method therefor, and applications thereof” (Jiangsu Hansoh Pharmaceutical Group Co., Ltd., priority 2016, dated 2023).
